According to paper PMC5814754, “Quantitative, Wide-Spectrum Kinase Profiling in Live Cells for Assessing the Effect of Cellular ATP on Target Engagement” (Cell Chemical Biology, 2018):

Columns and labels:
Experiment in all cases: Apparent affinity (EC50) of energy transfer probes by titration onto live HEK293 cells expressing kinase/Nluc fusions (Table S1)
Format in all cases: binding
[1] = target: full-length kinase/Nluc fusion proteins (Homo sapiens, UniProt Q14164); settings: IKBKE, Nluc N; read-out: Probe EC50
[2] = target: full-length kinase/Nluc fusion proteins (Homo sapiens, UniProt P54646); settings: PRKAA2, Nluc N; read-out: Probe EC50
[3] = target: full-length kinase/Nluc fusion proteins (Homo sapiens, UniProt Q9UK32); settings: RPS6KA6 (NP_055311), Nluc orientation N; read-out: Probe EC50
Chain of full-length kinase/Nluc fusion proteins (Homo sapiens, UniProt Q9UK32) (Q9UK32 whole entry, the tested form may be a part): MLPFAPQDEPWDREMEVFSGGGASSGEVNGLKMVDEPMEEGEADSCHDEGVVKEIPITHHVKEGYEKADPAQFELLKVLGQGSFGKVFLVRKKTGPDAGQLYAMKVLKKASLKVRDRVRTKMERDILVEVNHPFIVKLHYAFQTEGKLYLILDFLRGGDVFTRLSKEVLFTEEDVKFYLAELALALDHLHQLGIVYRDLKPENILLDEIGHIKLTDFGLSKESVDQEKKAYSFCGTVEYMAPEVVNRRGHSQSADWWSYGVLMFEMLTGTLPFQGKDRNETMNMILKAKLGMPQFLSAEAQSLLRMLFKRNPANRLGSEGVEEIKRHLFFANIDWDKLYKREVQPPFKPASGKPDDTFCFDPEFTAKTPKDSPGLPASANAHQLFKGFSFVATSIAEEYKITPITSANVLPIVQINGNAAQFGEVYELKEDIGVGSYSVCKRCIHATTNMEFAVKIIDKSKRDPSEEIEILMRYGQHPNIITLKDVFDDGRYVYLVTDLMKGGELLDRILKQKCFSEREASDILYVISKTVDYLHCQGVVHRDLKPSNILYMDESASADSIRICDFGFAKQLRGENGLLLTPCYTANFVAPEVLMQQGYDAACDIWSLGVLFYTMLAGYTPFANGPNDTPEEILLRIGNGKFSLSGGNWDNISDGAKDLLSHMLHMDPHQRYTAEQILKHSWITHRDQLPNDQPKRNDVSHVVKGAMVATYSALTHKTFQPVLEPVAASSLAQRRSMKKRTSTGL

[4] = target: full-length kinase/Nluc fusion proteins (Homo sapiens, UniProt P50613); settings: CDK7, Nluc C; read-out: Probe EC50
[5] = target: full-length kinase/Nluc fusion proteins (Homo sapiens, UniProt Q06187); settings: BTK, Nluc C; read-out: Probe EC50
Chain of full-length kinase/Nluc fusion proteins (Homo sapiens, UniProt Q06187) (Q06187 whole entry, the tested form may be a part): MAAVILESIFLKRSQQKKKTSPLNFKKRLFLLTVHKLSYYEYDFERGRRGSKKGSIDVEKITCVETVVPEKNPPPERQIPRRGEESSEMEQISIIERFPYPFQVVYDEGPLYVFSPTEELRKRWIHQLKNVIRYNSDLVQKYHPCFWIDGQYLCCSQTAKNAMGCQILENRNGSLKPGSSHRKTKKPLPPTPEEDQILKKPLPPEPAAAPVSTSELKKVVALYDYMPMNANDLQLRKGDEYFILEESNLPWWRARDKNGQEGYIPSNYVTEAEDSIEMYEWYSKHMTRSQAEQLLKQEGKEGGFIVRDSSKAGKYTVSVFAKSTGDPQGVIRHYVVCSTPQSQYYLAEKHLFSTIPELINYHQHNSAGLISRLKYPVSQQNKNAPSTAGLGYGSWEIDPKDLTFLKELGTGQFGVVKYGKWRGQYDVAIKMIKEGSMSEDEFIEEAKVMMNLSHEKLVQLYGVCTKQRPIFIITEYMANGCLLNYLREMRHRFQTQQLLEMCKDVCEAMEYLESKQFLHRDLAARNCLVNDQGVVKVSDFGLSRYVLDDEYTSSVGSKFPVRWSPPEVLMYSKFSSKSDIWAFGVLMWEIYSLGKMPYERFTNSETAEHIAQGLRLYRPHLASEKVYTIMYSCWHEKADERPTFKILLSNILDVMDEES

[6] = target: full-length kinase/Nluc fusion proteins (Homo sapiens, UniProt P08069); settings: IGF1R, Nluc C; read-out: Probe EC50
[7] = target: full-length kinase/Nluc fusion proteins (Homo sapiens, UniProt P53779); settings: JNK3, Nluc C; read-out: Probe EC50
Chain of full-length kinase/Nluc fusion proteins (Homo sapiens, UniProt P53779) (P53779 whole entry, the tested form may be a part): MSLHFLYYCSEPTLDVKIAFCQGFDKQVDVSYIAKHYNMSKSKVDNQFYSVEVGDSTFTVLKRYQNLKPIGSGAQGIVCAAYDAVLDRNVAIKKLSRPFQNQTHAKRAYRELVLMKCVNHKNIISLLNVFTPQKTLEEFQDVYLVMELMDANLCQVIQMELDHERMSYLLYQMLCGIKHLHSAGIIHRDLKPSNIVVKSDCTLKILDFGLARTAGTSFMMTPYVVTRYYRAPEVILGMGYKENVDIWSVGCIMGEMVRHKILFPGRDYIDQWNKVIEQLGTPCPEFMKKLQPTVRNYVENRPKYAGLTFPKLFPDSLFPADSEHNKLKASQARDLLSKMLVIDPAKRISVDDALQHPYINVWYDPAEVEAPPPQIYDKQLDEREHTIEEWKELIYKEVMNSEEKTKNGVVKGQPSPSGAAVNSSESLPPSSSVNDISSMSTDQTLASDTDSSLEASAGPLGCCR

[8] = target: full-length kinase/Nluc fusion proteins (Homo sapiens, UniProt Q13043); settings: STK4 (NP_006273), Nluc orientation N; read-out: Probe EC50
[9] = target: full-length kinase/Nluc fusion proteins (Homo sapiens, UniProt Q15418); settings: RPS6KA1 (NP_002944), Nluc orientation N; read-out: Probe EC50
[10] = target: full-length kinase/Nluc fusion proteins (Homo sapiens, UniProt Q13470); settings: TNK1 (NP_003976), Nluc orientation N; read-out: Probe EC50
[11] = target: full-length kinase/Nluc fusion proteins (Homo sapiens, UniProt P36888); settings: FLT3, Nluc C; read-out: Probe EC50
Chain of full-length kinase/Nluc fusion proteins (Homo sapiens, UniProt P36888) (P36888 27-993): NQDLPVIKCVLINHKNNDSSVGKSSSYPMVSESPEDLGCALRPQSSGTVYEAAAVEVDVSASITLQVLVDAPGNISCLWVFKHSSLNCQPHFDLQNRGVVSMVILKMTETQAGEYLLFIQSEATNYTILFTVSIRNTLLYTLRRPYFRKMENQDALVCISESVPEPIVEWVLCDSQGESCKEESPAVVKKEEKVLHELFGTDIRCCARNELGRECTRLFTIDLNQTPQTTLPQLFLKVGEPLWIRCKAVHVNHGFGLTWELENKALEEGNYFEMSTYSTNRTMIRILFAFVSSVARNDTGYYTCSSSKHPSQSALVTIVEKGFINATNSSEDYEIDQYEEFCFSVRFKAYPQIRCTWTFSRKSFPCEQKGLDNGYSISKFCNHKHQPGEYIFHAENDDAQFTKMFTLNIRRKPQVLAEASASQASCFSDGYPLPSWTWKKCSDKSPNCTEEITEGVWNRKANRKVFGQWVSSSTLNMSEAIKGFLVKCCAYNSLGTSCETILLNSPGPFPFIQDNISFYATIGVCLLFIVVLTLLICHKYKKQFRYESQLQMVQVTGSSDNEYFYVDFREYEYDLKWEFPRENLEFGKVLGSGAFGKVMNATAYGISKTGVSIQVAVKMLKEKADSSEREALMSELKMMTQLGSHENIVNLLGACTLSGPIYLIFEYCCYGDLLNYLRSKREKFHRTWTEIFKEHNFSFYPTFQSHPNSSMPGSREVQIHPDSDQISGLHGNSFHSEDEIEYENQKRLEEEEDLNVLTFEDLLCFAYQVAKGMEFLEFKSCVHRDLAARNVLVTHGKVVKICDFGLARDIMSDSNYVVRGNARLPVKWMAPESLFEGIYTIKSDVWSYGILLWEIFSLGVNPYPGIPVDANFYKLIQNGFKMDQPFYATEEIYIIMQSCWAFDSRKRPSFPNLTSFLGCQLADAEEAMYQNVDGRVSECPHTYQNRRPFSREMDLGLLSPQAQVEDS

[12] = target: full-length kinase/Nluc fusion proteins (Homo sapiens, UniProt P31751); settings: AKT2, Nluc C; read-out: Probe EC50
[13] = target: full-length kinase/Nluc fusion proteins (Homo sapiens, UniProt Q16659); settings: MAPK6, Nluc N; read-out: Probe EC50
[14] = target: full-length kinase/Nluc fusion proteins (Homo sapiens, UniProt Q8IYT8); settings: ULK2 (NP_001136082), Nluc orientation N; read-out: Probe EC50
[15] = target: full-length kinase/Nluc fusion proteins (Homo sapiens, UniProt P49759); settings: CLK1, Nluc N; read-out: Probe EC50
[16] = target: full-length kinase/Nluc fusion proteins (Homo sapiens, UniProt O43283); settings: MAP3K13, Nluc N; read-out: Probe EC50
[17] = target: full-length kinase/Nluc fusion proteins (Homo sapiens, UniProt Q8NG66); settings: NEK11, Nluc N; read-out: Probe EC50
Chain of full-length kinase/Nluc fusion proteins (Homo sapiens, UniProt Q8NG66) (Q8NG66 whole entry, the tested form may be a part): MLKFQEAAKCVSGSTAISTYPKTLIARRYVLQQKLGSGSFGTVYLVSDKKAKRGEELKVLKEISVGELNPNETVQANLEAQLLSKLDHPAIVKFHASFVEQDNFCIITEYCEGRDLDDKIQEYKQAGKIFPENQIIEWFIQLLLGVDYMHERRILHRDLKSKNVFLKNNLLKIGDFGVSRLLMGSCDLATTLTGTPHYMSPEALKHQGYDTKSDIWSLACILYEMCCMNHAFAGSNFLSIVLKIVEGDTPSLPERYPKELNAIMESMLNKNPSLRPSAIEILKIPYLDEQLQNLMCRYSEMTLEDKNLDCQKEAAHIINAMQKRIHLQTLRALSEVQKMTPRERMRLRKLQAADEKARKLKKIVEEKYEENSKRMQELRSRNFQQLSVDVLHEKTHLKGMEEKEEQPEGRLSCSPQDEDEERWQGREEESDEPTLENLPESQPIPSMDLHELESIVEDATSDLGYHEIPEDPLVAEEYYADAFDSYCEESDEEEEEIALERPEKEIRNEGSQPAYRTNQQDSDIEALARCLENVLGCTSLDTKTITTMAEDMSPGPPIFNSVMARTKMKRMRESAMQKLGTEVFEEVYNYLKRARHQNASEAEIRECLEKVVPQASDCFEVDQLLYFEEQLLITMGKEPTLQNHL

[18] = target: full-length kinase/Nluc fusion proteins (Homo sapiens, UniProt Q9NYY3); settings: PLK2, Nluc N; read-out: Probe EC50
[19] = target: full-length kinase/Nluc fusion proteins (Homo sapiens, UniProt Q9NRM7); settings: LATS2, Nluc C; read-out: Probe EC50
[20] = target: full-length kinase/Nluc fusion proteins (Homo sapiens, UniProt P29597); settings: TYK2 (NP_003322), Nluc orientation C; read-out: Probe EC50
[21] = target: full-length kinase/Nluc fusion proteins (Homo sapiens, UniProt P51956); settings: NEK3, Nluc N; read-out: Probe EC50
[22] = target: full-length kinase/Nluc fusion proteins (Homo sapiens, UniProt Q9P286); settings: PAK7, Nluc C; read-out: Probe EC50
Chain of full-length kinase/Nluc fusion proteins (Homo sapiens, UniProt Q9P286) (Q9P286 whole entry, the tested form may be a part): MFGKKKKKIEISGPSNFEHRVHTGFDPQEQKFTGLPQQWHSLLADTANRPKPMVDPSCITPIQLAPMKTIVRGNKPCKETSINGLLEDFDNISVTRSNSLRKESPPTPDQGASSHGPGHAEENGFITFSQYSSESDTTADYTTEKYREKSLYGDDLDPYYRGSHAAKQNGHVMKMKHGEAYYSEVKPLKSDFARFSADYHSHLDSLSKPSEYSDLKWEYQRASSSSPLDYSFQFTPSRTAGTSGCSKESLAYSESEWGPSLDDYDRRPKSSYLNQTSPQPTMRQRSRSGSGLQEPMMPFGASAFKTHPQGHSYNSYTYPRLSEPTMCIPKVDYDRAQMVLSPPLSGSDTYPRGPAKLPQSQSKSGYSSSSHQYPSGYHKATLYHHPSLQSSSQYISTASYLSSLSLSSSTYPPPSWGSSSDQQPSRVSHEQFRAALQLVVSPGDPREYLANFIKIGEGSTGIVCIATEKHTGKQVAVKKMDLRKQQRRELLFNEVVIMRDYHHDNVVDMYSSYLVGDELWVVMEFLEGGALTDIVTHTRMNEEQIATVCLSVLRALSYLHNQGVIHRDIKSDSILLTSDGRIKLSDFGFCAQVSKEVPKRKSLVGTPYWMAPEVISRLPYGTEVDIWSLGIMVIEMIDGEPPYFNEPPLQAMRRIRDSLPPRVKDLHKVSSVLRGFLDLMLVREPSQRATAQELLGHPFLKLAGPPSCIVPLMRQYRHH

[23] = target: full-length kinase/Nluc fusion proteins (Homo sapiens, UniProt Q9UHD2); settings: TBK1 (NP_037386), Nluc orientation N; read-out: Probe EC50
[24] = target: full-length kinase/Nluc fusion proteins (Homo sapiens, UniProt Q92630); settings: DYRK2, Nluc C; read-out: Probe EC50
[25] = target: full-length kinase/Nluc fusion proteins (Homo sapiens, UniProt O14965); settings: AURKA, Nluc C; read-out: Probe EC50
[26] = target: full-length kinase/Nluc fusion proteins (Homo sapiens, UniProt P31749); settings: AKT1, Nluc C; read-out: Probe EC50
[27] = target: full-length kinase/Nluc fusion proteins (Homo sapiens, UniProt P54756); settings: EPHA5, Nluc C; read-out: Probe EC50
[28] = target: full-length kinase/Nluc fusion proteins (Homo sapiens, UniProt P06241); settings: FYN, Nluc C; read-out: Probe EC50
Chain of full-length kinase/Nluc fusion proteins (Homo sapiens, UniProt P06241) (P06241 whole entry, the tested form may be a part): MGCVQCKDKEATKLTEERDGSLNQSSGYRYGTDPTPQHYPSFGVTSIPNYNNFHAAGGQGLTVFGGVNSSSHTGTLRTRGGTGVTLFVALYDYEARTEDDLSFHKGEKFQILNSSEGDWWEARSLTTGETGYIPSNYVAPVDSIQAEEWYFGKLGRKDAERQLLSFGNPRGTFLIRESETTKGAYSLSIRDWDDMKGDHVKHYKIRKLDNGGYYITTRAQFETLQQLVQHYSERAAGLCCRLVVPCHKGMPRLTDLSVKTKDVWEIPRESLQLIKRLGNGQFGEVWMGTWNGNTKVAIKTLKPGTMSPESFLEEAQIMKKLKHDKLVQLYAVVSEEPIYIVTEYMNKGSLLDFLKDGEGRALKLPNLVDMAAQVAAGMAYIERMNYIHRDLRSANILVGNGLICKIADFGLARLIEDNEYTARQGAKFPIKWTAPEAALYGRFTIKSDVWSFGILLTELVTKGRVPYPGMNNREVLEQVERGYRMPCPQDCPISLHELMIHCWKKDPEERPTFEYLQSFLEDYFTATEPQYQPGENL

[29] = target: full-length kinase/Nluc fusion proteins (Homo sapiens, UniProt P21709); settings: EPHA1, Nluc C; read-out: Probe EC50
[30] = target: full-length kinase/Nluc fusion proteins (Homo sapiens, UniProt P12931); settings: SRC (NP_005408), Nluc orientation C; read-out: Probe EC50
[31] = target: full-length kinase/Nluc fusion proteins (Homo sapiens, UniProt Q16539); settings: MAPK14, Nluc C; read-out: Probe EC50
[32] = target: full-length kinase/Nluc fusion proteins (Homo sapiens, UniProt P54760); settings: EPHB4, Nluc C; read-out: Probe EC50

Question: Which results are given for `CNC(=O)c1ccccc1Nc1nc(Nc2ccc(N3CCN(C(=O)CCOCCOCCOCCOCCNC(=O)CCc4ccc5n4[B-](F)(F)[N+]4=C(c6ccc[nH]6)C=CC4=C5)CC3)cc2)ncc1Cl` [Energy Transfer Probe 5, 2-((2-((4-(4-(1-amino-3,6,9,12-tetraoxapentadecan-15-oyl)piperazin-1-yl)phenyl)amino)-5-chloropyrimidin-4-yl)amino)-N-methylbenzamide-NanoBRET 590]?
Answer: EC50 [1]: > 1 µM; EC50 [2]: > 1 µM; EC50 [3]: 0.4 µM; EC50 [4]: 0.3 µM; EC50 [5]: 0.6 µM; EC50 [6]: > 1 µM; EC50 [7]: > 1 µM; EC50 [8]: > 1 µM; EC50 [9]: 0.2 µM; EC50 [10]: 0.05 µM; EC50 [11]: > 1 µM; EC50 [12]: > 1 µM; EC50 [13]: 0.4 µM; EC50 [14]: > 1 µM; EC50 [15]: > 1 µM; EC50 [16]: 0.2 µM; EC50 [17]: > 1 µM; EC50 [18]: > 1 µM; EC50 [19]: 0.3 µM; EC50 [20]: > 1 µM; EC50 [21]: > 1 µM; EC50 [22]: > 1 µM; EC50 [23]: 0.4 µM; EC50 [24]: > 1 µM; EC50 [25]: 0.04 µM; EC50 [26]: > 1 µM

Question: With `Cc1nc(Nc2ncc(C(=O)Nc3c(C)cccc3Cl)s2)cc(N2CCN(CCOCCNC(=O)CCc3ccc4n3[B-](F)(F)[N+]3=C(c5ccc[nH]5)C=CC3=C4)CC2)n1` [Energy Transfer Probe 6, 2-((6-(4-(2-(2-aminoethoxy)ethyl)piperazin-1-yl)-2-methylpyrimidin-4-yl)amino)-N-(2-chloro-6-methylphenyl)thiazole-5-carboxamide-NanoBRET 590] as the compound, how does the EC50 [27] read?
Answer: 0.03 µM

Question: And the EC50 [28]?
Answer: 0.5 µM

Question: What about the EC50 [29] of the same compound?
Answer: 0.3 µM

Question: And the EC50 [30]?
Answer: 0.3 µM

Question: And the EC50 [31]?
Answer: 0.08 µM

Question: And the EC50 [32]?
Answer: 0.01 µM
